Experimental data as given in ChEMBL document CHEMBL1133525, “A selenopyrylium photosensitizer for photodynamic therapy related in structure to the antitumor agent AA1 with potent in vivo activity and no long-term skin photosensitization” (J Med Chem, 2000).

Test: Partition coefficient (logP)
Format: physicochemical
Settings: octanol/water

First: CN(C)c1ccc(-c2cc(-c3ccccc3)[se+]c(-c3ccc(N)cc3)c2)cc1
Second: CN(C)c1ccc(-c2cc(-c3ccccc3)[se+]c(-c3ccc(N(C)C)cc3)c2)cc1
The logP of the first is lower: 0.8 for the first, 2.4 for the second.

First: CN(C)c1ccc(-c2cc(-c3ccccc3)[s+]c(-c3ccc(N)cc3)c2)cc1
Second: CN(C)c1ccc(-c2cc(-c3ccccc3)[s+]c(-c3ccc(N(C)C)cc3)c2)cc1
The logP of the first is lower: 0 for the first, 2.5 for the second.

First: CN(C)c1ccc(-c2cc(-c3ccccc3)[te+]c(-c3ccc(N)cc3)c2)cc1
Second: CN(C)c1ccc(-c2cc(-c3ccccc3)[te+]c(-c3ccc(N(C)C)cc3)c2)cc1
The logP of the first is lower: 0.5 for the first, 2.5 for the second.
